Source: US20240116985A1, “STAPLED PEPTIDES AND METHODS THEREOF” (priority 2020, published 2024)

How the values were obtained:
[1] = biological target: T1, full-length B-Catenin (Uniprot ID P35222) (Homo sapiens, UniProt P35222); test: Alphascreen binding assay (beta-catenin / biotin-TCF4 10-53)
T1 construct: 65 nM full-length B-Catenin (Uniprot ID P35222)
T1 sequence (P35222 1-781): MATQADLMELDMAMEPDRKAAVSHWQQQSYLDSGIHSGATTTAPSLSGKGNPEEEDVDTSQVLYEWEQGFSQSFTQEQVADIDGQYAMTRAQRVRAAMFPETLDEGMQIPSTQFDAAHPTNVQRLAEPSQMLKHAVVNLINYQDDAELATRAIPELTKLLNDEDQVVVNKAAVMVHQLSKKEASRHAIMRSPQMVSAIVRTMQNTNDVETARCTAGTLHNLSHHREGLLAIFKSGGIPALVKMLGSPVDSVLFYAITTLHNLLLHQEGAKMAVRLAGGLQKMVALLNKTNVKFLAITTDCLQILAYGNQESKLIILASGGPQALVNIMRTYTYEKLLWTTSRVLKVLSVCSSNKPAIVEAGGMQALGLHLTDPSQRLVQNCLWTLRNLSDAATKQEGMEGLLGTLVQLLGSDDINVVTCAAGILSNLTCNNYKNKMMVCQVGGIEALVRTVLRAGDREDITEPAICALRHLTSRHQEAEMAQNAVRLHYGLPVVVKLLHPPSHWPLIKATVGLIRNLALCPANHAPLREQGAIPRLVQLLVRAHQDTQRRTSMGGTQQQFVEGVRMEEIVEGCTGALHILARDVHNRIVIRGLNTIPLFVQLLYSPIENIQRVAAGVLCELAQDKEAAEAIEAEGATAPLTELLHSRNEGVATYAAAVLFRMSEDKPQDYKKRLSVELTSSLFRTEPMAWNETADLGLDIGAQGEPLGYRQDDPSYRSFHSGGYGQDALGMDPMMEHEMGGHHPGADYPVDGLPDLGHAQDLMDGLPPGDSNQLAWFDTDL
Method in brief: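 AlphaScreen (Ni-chelate beads) competition in 50 mM Tris pH 8.0, 250 mM NaCl with detergents and 0.1% BSA. Peptide titrated 10 uM–5 nM against 65 nM human β-catenin bound to 10 nM biotinylated TCF4 10-53, 15 min then 60 min with beads, both at 20 °C; 1:1 Hill-slope fit.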

CHI Log D procedure = type: physicochemical; conditions: for CHI Log D: pH 7.4

SMILES | EC50 [1] | CHI Log D (CHI Log D procedure) | chromatographic logD (CHI Log D procedure; pH 7.4, CHI Log D)
CC(=O)N[C@@H](Cc1ccccc1)C(=O)N[C@@H](CC(=O)O)C(=O)N[C@@H](C)C(=O)N[C@]1(C)CCCCCCC=CCOC(=O)N2CC[C@@](C(=O)N[C@@H](Cc3ccccc3)C(=O)N[C@@H](Cc3c[nH]c4ccccc34)C(=O)N[C@@H](CCC(N)=O)C(N)=O)(C2)NC(=O)[C@H](C(C)C)NC(=O)[C@H](Cc2ccccc2)NC(=O)[C@H](C)NC(=O)[C@H](C)NC(=O)[C@H](CCc2ccccc2)NC(=O)[C@H](CC(=O)O)NC1=O [I-97, Ac-Phe-Asp-Ala-R8-Asp-hPhe-Ala-Ala-Phe-Val-PyrS-Phe-Trp-Gln-NH2] | 7.01 µM | 2.062 | 
CC(=O)N[C@@H](Cc1ccccc1)C(=O)N[C@@H](CC(=O)O)C(=O)N[C@@H](C)C(=O)N[C@]1(C)CCCCCCC=CCOC(=O)N2CC[C@@](C(=O)N[C@@H](Cc3c(F)c(F)c(F)c(F)c3F)C(=O)N[C@@H](Cc3c[nH]c4ccccc34)C(=O)N[C@@H](CCC(N)=O)C(N)=O)(C2)NC(=O)[C@H](C(C)C)NC(=O)[C@H](Cc2ccccc2)NC(=O)[C@H](C)NC(=O)[C@H](C)NC(=O)[C@H](CC(=O)O)NC(=O)[C@H](CC(=O)O)NC1=O [I-226, Ac-Phe-Asp-Ala-R8-Asp-Asp-Ala-Ala-Phe-Val-PyrS-Pff-Trp-Gln-NH2] | 7.63 µM | 1.497 | 
CC(=O)N1CCC[C@]12CC=CCCCC1(CCCC=CCCCCCC[C@@](C)(C(=O)N[C@@H](Cc3ccccc3)C(=O)N[C@@H](CC3CNc4ccccc43)C(=O)N[C@@H](CCC(N)=O)C(N)=O)NC(=O)[C@H](C(C)C)NC(=O)[C@H](Cc3ccccc3)NC(=O)[C@H](C)NC(=O)[C@H](C)NC(=O)[C@H](CCC(=O)O)NC(=O)[C@H](CC(=O)O)NC1=O)NC(=O)[C@H](C)NC(=O)[C@H](CC(=O)O)NC2=O (stereo partly drawn) [I-167, Ac-PL3-Asp-Ala-B5-Asp-Glu-Ala-Ala-Phe-Val-S8-Phe-H2Trp-Gln-NH2] | 6.2 µM | 1.927 | 
CC(=O)N1CCC[C@]12CC=CCCCC1(CCCC=CCCCCCC[C@@](C)(C(=O)N[C@@H](Cc3ccccc3)C(=O)N[C@@H](Cc3c[nH]c4ccccc34)C(=O)N[C@@H](CCC(N)=O)C(N)=O)NC(=O)[C@H](C(C)C)NC(=O)[C@H](Cc3ccccc3)NC(=O)[C@H](C)NC(=O)[C@H](C)NC(=O)[C@H](Cc3ccncc3)NC(=O)[C@H](CC(=O)O)NC1=O)NC(=O)[C@H](C)NC(=O)[C@H](CC(=O)O)NC2=O (stereo partly drawn) [I-272, Ac-PL3-Asp-Ala-B5-Asp-4PyrA-Ala-Ala-Phe-Val-S8-Phe-Trp-Gln-NH2] | 1.01 µM |  | 2.46
CCCC[C@@H]1NC(=O)[C@H](CC(=O)O)NC(=O)[C@](C)(NC(=O)[C@@H](NC(=O)[C@H](CC(=O)O)NC(=O)[C@H](C)NC(C)=O)[C@@H](C)CC)CCN(C)C(=O)OCC=CCCCCC[C@@](C)(C(=O)N[C@@H](Cc2ccccc2)C(=O)N[C@@H](Cc2c[nH]c3ccccc23)C(=O)N[C@@H](Cc2c[nH]cn2)C(N)=O)NC(=O)[C@H](CCC(N)=O)NC(=O)[C@H](Cc2ccccc2)NC(=O)[C@H](C)NC(=O)[C@H](C)NC1=O [I-69, Ac-Ala-Asp-Ile-RdN-Asp-nLeu-Ala-Ala-Phe-Gln-S7-Phe-Trp-His-NH2] | 9.1 µM | 1.593 | 
CC(=O)N1CCC[C@]12CC=CCCCC1(CCCC=CCCCCCC[C@@](C)(C(=O)N[C@@H](Cc3ccccc3)C(=O)N[C@@H](Cc3c[nH]c4ccccc34)C(=O)N[C@@H](CCC(N)=O)C(N)=O)NC(=O)[C@H](C(C)C)NC(=O)[C@H](Cc3ccc(C(F)(F)F)cc3)NC(=O)[C@H](C)NC(=O)[C@H](C)NC(=O)[C@H](CC(=O)O)NC(=O)[C@H](CC(=O)O)NC1=O)NC(=O)[C@H](C)NC(=O)[C@H](CC(=O)O)NC2=O (stereo partly drawn) [I-240, Ac-PL3-Asp-Ala-B5-Asp-Asp-Ala-Ala-4F3MeF-Val-S8-Phe-Trp-Gln-NH2] | 3.47 µM | 2.074 | 
